Experimental data: patent US20250026762A1, “FUSED PYRAZOLE UREA ANALOGS AS GLUCOSYLCERAMIDE SYNTHASE INHIBITORS” (Merck Sharp & Dohme LLC, priority 2021, published 2025)

target: glucosylceramide synthase (GCS) enzyme in Golgi preparations from human A375 malignant melanoma skin cells (Homo sapiens (Human), UniProt Q16739); test: UDP-Glo glucosylceramide synthase biochemical assay; details: 1.5 μg crude golgi preparation; C6 ceramide and UDP-glucose at 2×Km; 20 h incubation at room temperature; luminescence
Sequence (Q16739 whole entry): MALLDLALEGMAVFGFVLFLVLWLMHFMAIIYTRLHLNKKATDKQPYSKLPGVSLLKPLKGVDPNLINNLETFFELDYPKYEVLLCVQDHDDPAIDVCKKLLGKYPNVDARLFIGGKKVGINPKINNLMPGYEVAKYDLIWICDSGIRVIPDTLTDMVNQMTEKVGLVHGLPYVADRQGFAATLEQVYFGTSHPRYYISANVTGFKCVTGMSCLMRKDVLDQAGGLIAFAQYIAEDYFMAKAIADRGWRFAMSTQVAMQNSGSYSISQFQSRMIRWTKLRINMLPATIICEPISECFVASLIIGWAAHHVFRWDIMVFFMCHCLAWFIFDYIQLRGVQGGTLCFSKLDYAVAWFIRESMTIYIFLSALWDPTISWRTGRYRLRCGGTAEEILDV
Source text: UDP-Glo™ Glucosylceramide Synthase Biochemical Assay
A UDP-Glo™ glucosylceramide synthase biochemical assay was utilized to evaluate the effect of test compounds on the activity of endogenous levels of GCS enzyme contained within Golgi preparations isolated from human A375 malignant melanoma skin cells. The UDP-Glo™ glucosylceramide synthase assay uses UDP-Glucose as a nucleotide-glycosyl donor and ceramide as substrate acceptor molecules. In the reaction, glucosylceramide synthase (GCS) transfers glucose from UDP-Glucose to ceramide. Glucosylceramide and UDP are released as products.
Using Promega's UDP-Glo™ Glycosyltransferase assay kit (Promega Corporation, Madison, WI, USA (Promega)), GCS activity was indirectly measured by detecting the amount of UDP produced. An aliquot of GCS enzyme (1.5 μg crude golgi preparation, total protein) and titrated test compound were aliquoted to each well and incubated for 30 minutes at room temperature. Substrate mixture was prepared by mixing C6 ceramide (Avanti Polar Lipids, Alabaster, AL USA (Avanti)) (micelles prepared at 0.6 mM in 0.6 mM DOPC) and UDP-glucose (20 μM; Promega), at concentrations equivalent to 2×Km, in assay buffer (25 mM HEPES (pH 7.5), 50 mM KCl, 5 mM MgCl2). An equivalent volume of substrate mixture was then added to each well. Following a 20 h incubation at room temperature to allow for GCS turnover of substrate, an equal volume of UDP detection reagent (Promega) was added to each well and incubated for an additional 75 minutes at room temperature to simultaneously convert the accumulated UDP product into ATP and generate light in a luciferase reaction. The generated light was detected using a luminometer. […] luminescence values (RLUs) were normalized to mean “min” and “max” effects, as determined on each plate. “Min” was defined as the mean of the values of the wells treated with vehicle (DMSO) and which represent 0% inhibition; “max” was defined as the mean of the values of the wells treated with a reference inhibitor and which represent the 100% effect. Values for % Emax and EC50 were determined by best-fitting the normalized data to a curve in Activity Base along a four-parameter logistic nonlinear regression (4PL) model (based on the Levenberg-Marquardt algorithm and defined by the equation below): […]
where: n is 4PMin (bottom of the curve); m is 4PMax (top of the curve); i is IP (inflection point of curve); andp is slope. See Levenberg, K., “A Method for the Solution of Certain Problems in Least Squares”, Quart. Appl. Math. 2, (1944), pp 164-168 and Marquardt, D., “An Algorithm for Least Squares Estimation on Nonlinear Parameters”, SIAM J. Appl. Math. 11, (1963) pp 431-441.

Row | SMILES | EC50
1 | O=C(N1CCN2CCC1CC2)n1nc(-c2cc(Cl)ccc2F)c2c1COCC2 [Compound 29, (1,4-diazabicyclo[3.2.2]nonan-4-yl)(3-(5-chloro-2-fluorophenyl)-4,7-dihydropyrano[3,4-c]pyrazol-1(5H)-yl)methanone] | 3.8 nM
2 | O=C(N1CCN2CCC1CC2)n1nc(-c2ccc(C(F)(F)F)cc2)c2c1COCC2 [Compound 30, (1,4-diazabicyclo[3.2.2]nonan-4-yl)(3-(4-(trifluoromethyl)phenyl)-4,7-dihydropyrano[3,4-c]pyrazol-1(5H)-yl)methanone] | 2.7 nM
3 | Cc1ccc(-c2nn(C(=O)N3CCN4CCC3CC4)c3c2CCC3)cc1 [Compound 31, 1,4-diazabicyclo[3.2.2]nonan-4-yl-[3-(p-tolyl)-5,6-dihydro-4H-cyclopenta[c]pyrazol-1-yl]methanone] | 0.2 nM
4 | COc1ncc(-c2nn(C(=O)N3CCN4CCC3CC4)c3c2CCOC3)cc1Cl [Compound 32, (1,4-diazabicyclo[3.2.2]nonan-4-yl)(3-(5-chloro-6-methoxypyridin-3-yl)-4,7-dihydropyrano[3,4-c]pyrazol-1(5H)-yl)methanone] | 7.6 nM
5 | Cn1nc(C(F)(F)F)cc1-c1nn(C(=O)N2CCN3CCC2CC3)c2c1CCC2 [Compound 33, 1,4-diazabicyclo[3.2.2]nonan-4-yl-[3-[2-methyl-5-(trifluoromethyl)pyrazol-3-yl]-5,6-dihydro-4H-cyclopenta[c]pyrazol-1-yl]methanone] | 5.9 nM
6 | COc1nccc(-c2nn(C(=O)N3CCN4CCC3CC4)c3c2CCOC3)c1Cl [Compound 34, (1,4-diazabicyclo[3.2.2]nonan-4-yl)(3-(3-chloro-2-methoxypyridin-4-yl)-4,7-dihydropyrano[3,4-c]pyrazol-1(5H)-yl)methanone] | 15.3 nM
7 | O=C(N1CCN2CCC1CC2)n1nc(C2=CCC(F)(F)CC2)c2c1COCC2 [Compound 35, (1,4-diazabicyclo[3.2.2]nonan-4-yl)(3-(4,4-difluorocyclohex-1-en-1-yl)-4,7-dihydropyrano[3,4-c]pyrazol-1(5H)-yl)methanone] | 38.5 nM
8 | O=C(N1CCN2CCC1CC2)n1nc(-c2ccc(F)c(Cl)c2)c2c1CCOC2 [Compound 36, (1,4-diazabicyclo[3.2.2]nonan-4-yl)(3-(3-chloro-4-fluorophenyl)-6,7-dihydropyrano[4,3-c]pyrazol-1(4H)-yl)methanone] | 0.3 nM
9 | O=C(N1CCN2CCC1CC2)n1nc(C2=CCCC2)c2c1CCC2 [Compound 37, [3-(cyclopenten-1-yl)-5,6-dihydro-4H-cyclopenta[c]pyrazol-1-yl]-(1,4-diazabicyclo[3.2.2]nonan-4-yl)methanone] | 3.6 nM
10 | COc1c(F)cccc1-c1nn(C(=O)N2CCN3CCC2CC3)c2c1CCC2 [Compound 38, 1,4-diazabicyclo[3.2.2]nonan-4-yl-[3-(3-fluoro-2-methoxy-phenyl)-5,6-dihydro-4H-cyclopenta[c]pyrazol-1-yl]methanone] | 0.6 nM
11 | Cc1cccc(-c2nn(C(=O)N3CCN4CCC3CC4)c3c2COCC3)c1F [Compound 39, (1,4-diazabicyclo[3.2.2]nonan-4-yl)(3-(2-fluoro-3-methylphenyl)-6,7-dihydropyrano[4,3-c]pyrazol-1(4H)-yl)methanone] | 0.3 nM
12 | COc1nccc(-c2nn(C(=O)N3CCN4CCC3CC4)c3c2CCC3)c1Cl [Compound 40, [3-(3-chloro-2-methoxy-4-pyridyl)-5,6-dihydro-4H-cyclopenta[c]pyrazol-1-yl]-(1,4-diazabicyclo[3.2.2]nonan-4-yl)methanone] | 1.2 nM
13 | COc1cccc(-c2nn(C(=O)N3CCN4CCC3CC4)c3c2CCC3)c1F [Compound 41, 1,4-diazabicyclo[3.2.2]nonan-4-yl-[3-(2-fluoro-3-methoxy-phenyl)-5,6-dihydro-4H-cyclopenta[c]pyrazol-1-yl]methanone] | 0.5 nM
14 | O=C(N1CCN2CCC1CC2)n1nc(-c2ccc(F)c(F)c2F)c2c1CCOC2 [Compound 42, (1,4-diazabicyclo[3.2.2]nonan-4-yl)(3-(2,3,4-trifluorophenyl)-6,7-dihydropyrano[4,3-c]pyrazol-1(4H)-yl)methanone] | 0.9 nM
15 | O=C(N1CCN2CCC1CC2)n1nc(-c2ccc3c(c2)CCO3)c2c1CCC2 [Compound 43, 1,4-diazabicyclo[3.2.2]nonan-4-yl-[3-(2,3-dihydrobenzofuran-5-yl)-5,6-dihydro-4H-cyclopenta[c]pyrazol-1-yl]methanone] | 0.5 nM
16 | COc1ccc(F)c(-c2nn(C(=O)N3CCN4CCC3CC4)c3c2CCC3)c1 [Compound 44, 1,4-diazabicyclo[3.2.2]nonan-4-yl-[3-(2-fluoro-5-methoxy-phenyl)-5,6-dihydro-4H-cyclopenta[c]pyrazol-1-yl]methanone] | 1.7 nM
17 | O=C(N1CCN2CCC1CC2)n1nc(-c2cc(F)c(F)cc2F)c2c1CCOC2 [Compound 45, (1,4-diazabicyclo[3.2.2]nonan-4-yl)(3-(2,4,5-trifluorophenyl)-6,7-dihydropyrano[4,3-c]pyrazol-1(4H)-yl)methanone] | 2.3 nM
18 | O=C(N1CCN2CCC1CC2)n1nc(-c2cc(F)c(F)c(F)c2)c2c1CCOC2 [Compound 46, (1,4-diazabicyclo[3.2.2]nonan-4-yl)(3-(3,4,5-trifluorophenyl)-6,7-dihydropyrano[4,3-c]pyrazol-1(4H)-yl)methanone] | 4.6 nM
19 | COc1ncc(-c2nn(C(=O)N3CCN4CCC3CC4)c3c2COCC3)cc1Cl [Compound 47, (1,4-diazabicyclo[3.2.2]nonan-4-yl)(3-(5-chloro-6-methoxypyridin-3-yl)-6,7-dihydropyrano[4,3-c]pyrazol-1(4H)-yl)methanone] | 8.3 nM
20 | O=C(N1CCN2CCC1CC2)n1nc(-c2ccc(Cl)cn2)c2c1CCOC2 [Compound 48, (1,4-diazabicyclo[3.2.2]nonan-4-yl)(3-(5-chloropyridin-2-yl)-6,7-dihydropyrano[4,3-c]pyrazol-1(4H)-yl)methanone] | 2 nM
21 | O=C(N1CCN2CCC1CC2)n1nc(-c2cc(Cl)c(F)cn2)c2c1COCC2 [Compound 49, (1,4-diazabicyclo[3.2.2]nonan-4-yl)(3-(4-chloro-5-fluoropyridin-2-yl)-4,7-dihydropyrano[3,4-c]pyrazol-1(5H)-yl)methanone] | 8.3 nM
22 | O=C(N1CCN2CCC1CC2)n1nc(-c2ccc(F)c(Cl)c2)c2c1COC2 [Compound 50, (1,4-diazabicyclo[3.2.2]nonan-4-yl)(3-(3-chloro-4-fluorophenyl)-4,6-dihydro-1H-furo[3,4-c]pyrazol-1-yl)methanone] | 14.9 nM
23 | O=C(N1CCN2CCC1CC2)n1nc(N2CCC(F)(F)CC2)c2c1CCC2 [Compound 51, (1,4-diazabicyclo[3.2.2]nonan-4-yl)(3-(4,4-difluoropiperidin-1-yl)-5,6-dihydrocyclopenta[c]pyrazol-1(4H)-yl)methanone] | 7 nM
24 | O=C(N1CCN2CCC1CC2)n1nc(N2CCC3(CC2)CC3)c2c1COCC2 [Compound 52, (3-(6-azaspiro[2.5]octan-6-yl)-4,7-dihydropyrano[3,4-c]pyrazol-1(5H)-yl)(1,4-diazabicyclo[3.2.2]nonan-4-yl)methanone] | 18.3 nM
25 | O=C(N1CCN2CCC1CC2)n1nc(-n2cc(C(F)(F)F)cn2)c2c1COCC2 [Compound 53, (1,4-diazabicyclo[3.2.2]nonan-4-yl)(3-(4-(trifluoromethyl)-1H-pyrazol-1-yl)-4,7-dihydropyrano[3,4-c]pyrazol-1(5H)-yl)methanone] | 4.1 nM
26 | O=C(N1CCN2CCC1CC2)n1nc(-n2cc(C(F)(F)F)cn2)c2c1CCC2 [Compound 54, (1,4-diazabicyclo[3.2.2]nonan-4-yl)(3-(4-(trifluoromethyl)-1H-pyrazol-1-yl)-5,6-dihydrocyclopenta[c]pyrazol-1(4H)-yl)methanone] | 0.8 nM
27 | O=C(N1CCN2CCC1CC2)n1nc(-n2cc(Cl)cn2)c2c1COCC2 [Compound 55, (1,4-diazabicyclo[3.2.2]nonan-4-yl)(3-(4-chloro-1H-pyrazol-1-yl)-4,7-dihydropyrano[3,4-c]pyrazol-1(5H)-yl)methanone] | 10.4 nM
28 | O=C(N1CCN2CCC1CC2)n1nc(-n2cc(Cl)cn2)c2c1CCC2 [Compound 56, (1,4-diazabicyclo[3.2.2]nonan-4-yl)(3-(4-chloro-1H-pyrazol-1-yl)-5,6-dihydrocyclopenta[c]pyrazol-1(4H)-yl)methanone] | 3 nM
